Tested on: 379773-124-R-J2-PDC spheroid viability
Assay: Anticancer human tumor 379773-124-R-J2-PDC patient-derived endometrial carcinoma cell line growth inhibition [POLQ]
Details: spheroids with HUVEC and MSC; for IC50: curve of first compound; for viability, T/C: stronger effect = lower value
Method in brief: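 Patient-derived tumour cells were co-cultured with HUVEC and mesenchymal stem cells as multicellular spheroids at 37 °C. They were treated with POLQ inhibitors (novobiocin, ART-558, RP6685) alone or combined with other agents. Top concentrations were at or near clinical Cmax (otherwise 10 microM; SN-38 at 1 microM), decreasing in half-log steps.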

[1] = second compound 0.0316 µM, first compound 0.0316 µM
[2] = second compound 0.0316 µM, first compound 0.1 µM
[3] = second compound 0.1 µM, first compound 0.0316 µM
[4] = second compound 0.1 µM, first compound 0.1 µM
[5] = second compound 0.316 µM, first compound 0.0316 µM
[6] = second compound 0.316 µM, first compound 0.1 µM
[7] = second compound 1 µM, first compound 0.0316 µM
[8] = second compound 1 µM, first compound 0.1 µM
[9] = second compound 3.16 µM, first compound 0.0316 µM
[10] = second compound 3.16 µM, first compound 0.1 µM
[11] = second compound 10 µM, first compound 0.0316 µM
[12] = second compound 10 µM, first compound 0.1 µM
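Further: spheroids exposed to drugs for seven days before readout.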
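Wherever viability, T/C is given: percent viability relative to DMSO vehicle control taken as 100%.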

In the case of `O=c1[nH]cc(F)c(=O)[nH]1` + Cc1cccc(N(C)C(=O)C2C(O)CCN2c2nc(C)cc(C(F)(F)F)c2C#N)c1, the IC50 (second compound 0.0316 µM) is reported as > 10 µM, the IC50 (second compound 0.1 µM) is reported as > 10 µM and the IC50 (second compound 0.316 µM) is reported as > 10 µM. The IC50 (second compound 1 µM) was > 10 µM, the IC50 (second compound 3.16 µM) was > 10 µM and the IC50 (second compound 10 µM) was > 10 µM. For the same compound, the viability, T/C [1] was 95%, the viability, T/C [2] was 88.5% and the viability, T/C (second compound 0.0316 µM, first compound 0.316 µM) was 88.2%. For the same compound, the viability, T/C (second compound 0.0316 µM, first compound 1 µM) was 77.2%, the viability, T/C (second compound 0.0316 µM, first compound 3.16 µM) was 76.6% and the viability, T/C (second compound 0.0316 µM, first compound 10 µM) was 61.5%. The viability, T/C [3] was 95.5%, the viability, T/C [4] was 90.7% and the viability, T/C (second compound 0.1 µM, first compound 0.316 µM) was 93.4%. The viability, T/C (second compound 0.1 µM, first compound 1 µM) was 85.8%, the viability, T/C (second compound 0.1 µM, first compound 3.16 µM) was 82% and the viability, T/C (second compound 0.1 µM, first compound 10 µM) was 58.7%. For the same compound, the viability, T/C [5] was 91.8%, the viability, T/C [6] was 88.7% and the viability, T/C (second compound 0.316 µM, first compound 0.316 µM) was 94%. The viability, T/C (second compound 0.316 µM, first compound 1 µM) was 74.5%, the viability, T/C (second compound 0.316 µM, first compound 3.16 µM) was 82% and the viability, T/C (second compound 0.316 µM, first compound 10 µM) was 68.8%. It also gave a viability, T/C [7] of 92.2%, a viability, T/C [8] of 90.4% and a viability, T/C (second compound 1 µM, first compound 0.316 µM) of 82.2%. The viability, T/C (second compound 1 µM, first compound 1 µM) was 86.3%, the viability, T/C (second compound 1 µM, first compound 3.16 µM) was 74.2% and the viability, T/C (second compound 1 µM, first compound 10 µM) was 67.7%. The viability, T/C [9] was 84.9%, the viability, T/C [10] was 97.8% and the viability, T/C (second compound 3.16 µM, first compound 0.316 µM) was 79.8%. The viability, T/C (second compound 3.16 µM, first compound 1 µM) was 76.5%, the viability, T/C (second compound 3.16 µM, first compound 3.16 µM) was 77.3% and the viability, T/C (second compound 3.16 µM, first compound 10 µM) was 52.9%. It also gave a viability, T/C [11] of 78.7%, a viability, T/C [12] of 96.6% and a viability, T/C (second compound 10 µM, first compound 0.316 µM) of 96.4%. It also gave a viability, T/C (second compound 10 µM, first compound 1 µM) of 83%, a viability, T/C (second compound 10 µM, first compound 3.16 µM) of 75% and a viability, T/C (second compound 10 µM, first compound 10 µM) of 56.2%.
With `Cn1ncnc1[C@H]1c2n[nH]c(=O)c3cc(F)cc(c23)N[C@@H]1c1ccc(F)cc1` + Nc1ccc(C#CCN(C(=O)Cc2ncc(C(F)(F)F)cc2C(F)(F)F)c2ccc(F)cc2)nn1 the IC50 (second compound 0.0316 µM) was > 0.1 µM, the IC50 (second compound 0.1 µM) was > 0.1 µM and the IC50 (second compound 0.316 µM) was > 0.1 µM. The IC50 (second compound 1 µM) was > 0.1 µM, the IC50 (second compound 3.16 µM) was > 0.1 µM and the IC50 (second compound 10 µM) was > 0.1 µM. For the same compound, the viability, T/C (second compound 0.0316 µM, first compound 0.000316 µM) was 103%, the viability, T/C (second compound 0.0316 µM, first compound 0.001 µM) was 86.2% and the viability, T/C (second compound 0.0316 µM, first compound 0.00316 µM) was 94%. The viability, T/C (second compound 0.0316 µM, first compound 0.01 µM) was 85.8%, the viability, T/C [1] was 68.6% and the viability, T/C [2] was 53.7%. The viability, T/C (second compound 0.1 µM, first compound 0.000316 µM) was 89.8%, the viability, T/C (second compound 0.1 µM, first compound 0.001 µM) was 94.6% and the viability, T/C (second compound 0.1 µM, first compound 0.00316 µM) was 99.3%. For the same compound, the viability, T/C (second compound 0.1 µM, first compound 0.01 µM) was 91.9%, the viability, T/C [3] was 79.1% and the viability, T/C [4] was 55.8%. The viability, T/C (second compound 0.316 µM, first compound 0.000316 µM) was 100%, the viability, T/C (second compound 0.316 µM, first compound 0.001 µM) was 102% and the viability, T/C (second compound 0.316 µM, first compound 0.00316 µM) was 93.6%. For the same compound, the viability, T/C (second compound 0.316 µM, first compound 0.01 µM) was 86.3%, the viability, T/C [5] was 72.5% and the viability, T/C [6] was 64.2%. It also gave a viability, T/C (second compound 1 µM, first compound 0.000316 µM) of 97.7%, a viability, T/C (second compound 1 µM, first compound 0.001 µM) of 90.1% and a viability, T/C (second compound 1 µM, first compound 0.00316 µM) of 99.1%. For the same compound, the viability, T/C (second compound 1 µM, first compound 0.01 µM) was 86.6%, the viability, T/C [7] was 80.4% and the viability, T/C [8] was 55.1%. It also gave a viability, T/C (second compound 3.16 µM, first compound 0.000316 µM) of 113%, a viability, T/C (second compound 3.16 µM, first compound 0.001 µM) of 91.5% and a viability, T/C (second compound 3.16 µM, first compound 0.00316 µM) of 98%. It also gave a viability, T/C (second compound 3.16 µM, first compound 0.01 µM) of 102%, a viability, T/C [9] of 67.5% and a viability, T/C [10] of 58.2%. The viability, T/C (second compound 10 µM, first compound 0.000316 µM) was 87.7%, the viability, T/C (second compound 10 µM, first compound 0.001 µM) was 90.6% and the viability, T/C (second compound 10 µM, first compound 0.00316 µM) was 86.3%. It also gave a viability, T/C (second compound 10 µM, first compound 0.01 µM) of 84%, a viability, T/C [11] of 78.8% and a viability, T/C [12] of 56.5%.

— PubChem BioAssay AID1963848 (Molecular Pharmacology Branch, DTP, NCI, 2024)
